The source of these data is the supplement of paper PMC10307832.

Test in all cases: relative viability (nuclei count vs DMSO), 5 days (fraction); higher = more cells survive
Compound in the assay “IDH-C35 + Lapatinib”: Cc1ccccc1C(C(=O)NC1CCCCC1)N(C(=O)Cn1ccnc1C)c1cccc(F)c1 [IDH-C35] + CS(=O)(=O)CCNCc1ccc(-c2ccc3ncnc(Nc4ccc(OCc5cccc(F)c5)c(Cl)c4)c3c2)o1 [Lapatinib] (partner 2 µM)
In outline:
(§1)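 The day after seeding in 1536-well plates, lung cancer cell lines were treated by pin tool with a single drug, or with a fixed anchor-drug dose together with five library-drug doses (not always all listed) in √10 steps. After 5 days, a combined fix-and-stain solution (final 0.05% Triton X-100, 1% formaldehyde, 1 ug/ml Hoechst) was added. Nuclei counted on 4× images gave relative viability as treated counts over vehicle counts, reported as the median of duplicate plates.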

Compound in the assay “IDH-C35 + Alpelisib”: Cc1ccccc1C(C(=O)NC1CCCCC1)N(C(=O)Cn1ccnc1C)c1cccc(F)c1 [IDH-C35] + Cc1nc(NC(=O)N2CCC[C@H]2C(N)=O)sc1-c1ccnc(C(C)(C)C(F)(F)F)c1 [Alpelisib] (partner 2 µM)
In a few lines:
as §1

Compound in assay [1]: CC1=C(C(=NN1)C)CC2=C(C3=C(S2)N(C(=O)N(C3=O)C)CC(C)C)C(=O)N4C[C@@H](CO4)O + Nc1ncn([C@H]2C[C@H](O)[C@@H](CO)O2)c(=O)n1 [Decitabine] (partner 2 µM)
In a few lines:
as §1

Compound in assay [2]: CC1=C(C(=NN1)C)CC2=C(C3=C(S2)N(C(=O)N(C3=O)C)CC(C)C)C(=O)N4C[C@@H](CO4)O + O=C(CCCCCCC(=O)Nc1ccccc1)NO [Vorinostat] (partner 1 µM)
In a few lines: as §1

For the cell line 201T, the relative viability is 1.05 with IDH-C35 + Lapatinib (first compound 0.08 µM); 1.04 with IDH-C35 + Lapatinib (first compound 0.253 µM); 1.02 in the assay with IDH-C35 + Lapatinib (first compound 0.8 µM); 0.973 in the assay with IDH-C35 + Lapatinib (first compound 2.53 µM); 1.01 in the assay with IDH-C35 + Lapatinib (first compound 8 µM); 0.989 with IDH-C35 + Alpelisib (first compound 0.08 µM). Besides, the relative viability with IDH-C35 + Alpelisib (first compound 0.253 µM) came to 0.998; in the assay with IDH-C35 + Alpelisib (first compound 0.8 µM), 0.95; with IDH-C35 + Alpelisib (first compound 2.53 µM) it was 0.968; in the assay with IDH-C35 + Alpelisib (first compound 8 µM) it was 1.02; in assay [1] (first compound 0.0025 µM) it was 0.87; in assay [1] (first compound 0.007906 µM), 0.866. In addition, the relative viability in assay [1] (first compound 0.025 µM) amounted to 0.795; in assay [1] (first compound 0.07906 µM) it was 0.865; in assay [1] (first compound 0.25 µM), 0.82; in assay [2] (first compound 0.0025 µM), 0.979; in assay [2] (first compound 0.007906 µM), 1.02; in assay [2] (first compound 0.025 µM), 0.951. For the same cell line, the relative viability in assay [2] (first compound 0.07906 µM) worked out at 0.952; in assay [2] (first compound 0.25 µM), 0.973.
With A549, the relative viability with IDH-C35 + Lapatinib (first compound 0.08 µM) was 0.956; with IDH-C35 + Lapatinib (first compound 0.253 µM), 1; with IDH-C35 + Lapatinib (first compound 0.8 µM), 0.988; with IDH-C35 + Lapatinib (first compound 2.53 µM), 0.947; in the assay with IDH-C35 + Lapatinib (first compound 8 µM) it was 1.03; with IDH-C35 + Alpelisib (first compound 0.08 µM), 0.734. Also, the relative viability worked out at 0.871 with IDH-C35 + Alpelisib (first compound 0.253 µM); 0.771 with IDH-C35 + Alpelisib (first compound 0.8 µM); 0.744 with IDH-C35 + Alpelisib (first compound 2.53 µM); 0.726 with IDH-C35 + Alpelisib (first compound 8 µM); 0.237 in assay [1] (first compound 0.0025 µM); 0.284 in assay [1] (first compound 0.007906 µM). Further, the results for the relative viability in assay [1] (first compound 0.025 µM), in assay [1] (first compound 0.07906 µM) and in assay [1] (first compound 0.25 µM) were 0.252, 0.232 and 0.343, respectively.
Take A-427: the relative viability with IDH-C35 + Lapatinib (first compound 0.08 µM) was 1.03; with IDH-C35 + Lapatinib (first compound 0.253 µM) it was 0.978; with IDH-C35 + Lapatinib (first compound 0.8 µM), 0.942; with IDH-C35 + Lapatinib (first compound 2.53 µM) it was 1.02; with IDH-C35 + Lapatinib (first compound 8 µM), 1.03; with IDH-C35 + Alpelisib (first compound 0.08 µM), 1.06. For the same cell line, the relative viability with IDH-C35 + Alpelisib (first compound 0.253 µM) amounted to 1.04; with IDH-C35 + Alpelisib (first compound 0.8 µM) it was 1.04; with IDH-C35 + Alpelisib (first compound 2.53 µM), 1.07; in the assay with IDH-C35 + Alpelisib (first compound 8 µM), 1.1; in assay [1] (first compound 0.0025 µM), 0.592; in assay [1] (first compound 0.007906 µM), 0.576. For the same cell line, the relative viability is 0.623 in assay [1] (first compound 0.025 µM); 0.605 in assay [1] (first compound 0.07906 µM); 0.604 in assay [1] (first compound 0.25 µM); 0.899 in assay [2] (first compound 0.0025 µM); 0.895 in assay [2] (first compound 0.007906 µM); 0.865 in assay [2] (first compound 0.025 µM). Moreover, the relative viability in assay [2] (first compound 0.07906 µM) was 0.826; in assay [2] (first compound 0.25 µM), 0.929.
On to ABC-1, for which the relative viability came to 1.3 with IDH-C35 + Lapatinib (first compound 0.08 µM); 1 in the assay with IDH-C35 + Lapatinib (first compound 0.253 µM); 1.03 with IDH-C35 + Lapatinib (first compound 0.8 µM); 1.16 with IDH-C35 + Lapatinib (first compound 2.53 µM); 1.06 with IDH-C35 + Lapatinib (first compound 8 µM); 0.907 in the assay with IDH-C35 + Alpelisib (first compound 0.08 µM). Moreover, the relative viability with IDH-C35 + Alpelisib (first compound 0.253 µM) is 1.03; in the assay with IDH-C35 + Alpelisib (first compound 0.8 µM) it was 1; with IDH-C35 + Alpelisib (first compound 2.53 µM), 1.05; in the assay with IDH-C35 + Alpelisib (first compound 8 µM), 0.857; in assay [1] (first compound 0.0025 µM) it was 0.988; in assay [1] (first compound 0.007906 µM) it was 0.899. Besides, the relative viability in assay [1] (first compound 0.07906 µM) is 0.889; in assay [1] (first compound 0.25 µM) it was 0.779; in assay [2] (first compound 0.0025 µM), 1.08; in assay [2] (first compound 0.007906 µM) it was 1.27; in assay [2] (first compound 0.07906 µM) it was 0.904; in assay [2] (first compound 0.25 µM), 0.864.
For the cell line CAL-12T, the relative viability stood at 0.655 with IDH-C35 + Lapatinib (first compound 0.08 µM); 0.578 with IDH-C35 + Lapatinib (first compound 0.253 µM); 0.728 with IDH-C35 + Lapatinib (first compound 0.8 µM); 0.749 with IDH-C35 + Lapatinib (first compound 2.53 µM); 0.7 in the assay with IDH-C35 + Lapatinib (first compound 8 µM); 1.26 with IDH-C35 + Alpelisib (first compound 0.08 µM). Further, the relative viability with IDH-C35 + Alpelisib (first compound 0.253 µM) stood at 1.26; with IDH-C35 + Alpelisib (first compound 0.8 µM) it was 1.11; in the assay with IDH-C35 + Alpelisib (first compound 2.53 µM), 1.14; with IDH-C35 + Alpelisib (first compound 8 µM), 1.1; in assay [2] (first compound 0.0025 µM), 0.956; in assay [2] (first compound 0.007906 µM), 0.962. Besides, the relative viability amounted to 0.827 in assay [2] (first compound 0.025 µM), 0.801 in assay [2] (first compound 0.07906 µM) and 0.772 in assay [2] (first compound 0.25 µM).
With Calu-6, the relative viability in the assay with IDH-C35 + Lapatinib (first compound 0.08 µM) amounted to 1.04; with IDH-C35 + Lapatinib (first compound 0.253 µM) it was 1.04; in the assay with IDH-C35 + Lapatinib (first compound 0.8 µM), 1.03; with IDH-C35 + Lapatinib (first compound 2.53 µM), 1.06; in the assay with IDH-C35 + Lapatinib (first compound 8 µM), 1.01; in the assay with IDH-C35 + Alpelisib (first compound 0.08 µM), 1. Moreover, the relative viability with IDH-C35 + Alpelisib (first compound 0.253 µM) is 0.973; with IDH-C35 + Alpelisib (first compound 0.8 µM), 0.955; with IDH-C35 + Alpelisib (first compound 2.53 µM), 0.97; with IDH-C35 + Alpelisib (first compound 8 µM), 1.05.
Turning to ChaGo-K-1, the relative viability was found to be 0.506 in assay [1] (first compound 0.0025 µM); 0.509 in assay [1] (first compound 0.007906 µM); 0.508 in assay [1] (first compound 0.025 µM); 0.536 in assay [1] (first compound 0.07906 µM); 0.553 in assay [1] (first compound 0.25 µM); 0.73 in assay [2] (first compound 0.0025 µM). In addition, the relative viability worked out at 0.811 in assay [2] (first compound 0.007906 µM), 0.755 in assay [2] (first compound 0.025 µM), 0.725 in assay [2] (first compound 0.07906 µM) and 0.787 in assay [2] (first compound 0.25 µM).
Consider EBC-1, for which the relative viability amounted to 0.24 in the assay with IDH-C35 + Lapatinib (first compound 0.08 µM); 0.228 with IDH-C35 + Lapatinib (first compound 0.253 µM); 0.24 with IDH-C35 + Lapatinib (first compound 0.8 µM); 0.232 with IDH-C35 + Lapatinib (first compound 2.53 µM); 0.236 with IDH-C35 + Lapatinib (first compound 8 µM); 0.879 with IDH-C35 + Alpelisib (first compound 0.08 µM). For the same cell line, the relative viability was 0.826 with IDH-C35 + Alpelisib (first compound 0.253 µM), 0.843 in the assay with IDH-C35 + Alpelisib (first compound 0.8 µM), 0.867 in the assay with IDH-C35 + Alpelisib (first compound 2.53 µM) and 0.738 with IDH-C35 + Alpelisib (first compound 8 µM).
Regarding IA-LM, the relative viability in the assay with IDH-C35 + Lapatinib (first compound 0.08 µM) was 0.721; with IDH-C35 + Lapatinib (first compound 0.253 µM), 1.03; with IDH-C35 + Lapatinib (first compound 0.8 µM), 0.721; with IDH-C35 + Lapatinib (first compound 2.53 µM) it was 0.809; with IDH-C35 + Lapatinib (first compound 8 µM) it was 0.535; with IDH-C35 + Alpelisib (first compound 0.08 µM), 0.998. In addition, the relative viability was 0.9 with IDH-C35 + Alpelisib (first compound 0.253 µM); 0.793 with IDH-C35 + Alpelisib (first compound 0.8 µM); 0.761 with IDH-C35 + Alpelisib (first compound 2.53 µM); 0.584 with IDH-C35 + Alpelisib (first compound 8 µM); 0.91 in assay [2] (first compound 0.0025 µM); 1.19 in assay [2] (first compound 0.007906 µM). Further, the figures for the relative viability in assay [2] (first compound 0.07906 µM) and in assay [2] (first compound 0.25 µM) were 0.942 and 1.08, respectively.
